# Laboratory results reported in the NIST ThermoML archive (doi:10.1016/j.fluid.2018.06.013).
# ± gives the expanded uncertainty stated by the source.
# Experiment: activity coefficient (dimensionless); of the first substance listed, at infinite dilution; xn = mol fraction of the nth substance listed
# Details: 100 kPa, Liquid, Chromatography, x1 = 0
SMILES,activity coefficient (313.15 K),activity coefficient (323.15 K),activity coefficient (343.15 K),activity coefficient (363.15 K),activity coefficient (373.15 K)
CCC[N+](=O)[O-] [1-nitropropane] + CCCC[N+]1(C)CCCC1.N#CN=C=[N-],0.721 ± 0.075,0.74 ± 0.077,0.789 ± 0.081,0.827 ± 0.085,0.838 ± 0.086
C#CCCCCC [1-heptyne] + CCCC[N+]1(C)CCCC1.N#CN=C=[N-],5.76 ± 0.61,5.95 ± 0.63,6.39 ± 0.67,6.76 ± 0.71,6.92 ± 0.73
C#CCCCCCC [1-octyne] + CCCC[N+]1(C)CCCC1.N#CN=C=[N-],8.87 ± 0.93,9.03 ± 0.95,9.41 ± 0.99,9.79 ± 1,9.87 ± 1
"C1COCCO1 [1,4-dioxane] + CCCC[N+]1(C)CCCC1.N#CN=C=[N-]",0.909 ± 0.093,0.962 ± 0.098,1.05 ± 0.11,1.13 ± 0.12,1.17 ± 0.12
"Cc1cccc(C)c1 [1,3-dimethylbenzene] + CCCC[N+]1(C)CCCC1.N#CN=C=[N-]",3.36 ± 0.35,3.47 ± 0.36,3.58 ± 0.38,3.74 ± 0.39,3.81 ± 0.4
CCCCO [butan-1-ol] + CCCC[N+]1(C)CCCC1.N#CN=C=[N-],0.897 ± 0.092,0.873 ± 0.089,0.844 ± 0.087,0.836 ± 0.086,0.814 ± 0.084
Cc1ccccc1 [toluene] + CCCC[N+]1(C)CCCC1.N#CN=C=[N-],2.07 ± 0.22,2.14 ± 0.22,2.3 ± 0.24,2.43 ± 0.26,2.48 ± 0.26
"Cc1ccccc1C [1,2-dimethylbenzene] + CCCC[N+]1(C)CCCC1.N#CN=C=[N-]",2.69 ± 0.28,2.75 ± 0.29,2.91 ± 0.31,3.1 ± 0.3,3.18 ± 0.33

# The next lines start with the values.
activity coefficient (313.15 K),activity coefficient (323.15 K),activity coefficient (343.15 K),activity coefficient (363.15 K),activity coefficient (373.15 K),SMILES
3.32 ± 0.35,3.43 ± 0.36,3.52 ± 0.37,3.7 ± 0.4,3.77 ± 0.4,CCc1ccccc1 [ethylbenzene] + CCCC[N+]1(C)CCCC1.N#CN=C=[N-]
0.875 ± 0.09,0.888 ± 0.091,0.859 ± 0.088,0.869 ± 0.089,0.881 ± 0.09,CCC(C)O (stereo not given) [butan-2-ol] + CCCC[N+]1(C)CCCC1.N#CN=C=[N-]
0.649 ± 0.068,0.645 ± 0.068,0.648 ± 0.068,0.665 ± 0.07,0.638 ± 0.067,CCCO [propan-1-ol] + CCCC[N+]1(C)CCCC1.N#CN=C=[N-]
2.92 ± 0.31,3 ± 0.32,3.16 ± 0.33,3.25 ± 0.34,3.34 ± 0.35,CCCC(=O)OC [methyl butanoate] + CCCC[N+]1(C)CCCC1.N#CN=C=[N-]
2.35 ± 0.25,2.36 ± 0.25,2.48 ± 0.26,2.57 ± 0.27,2.61 ± 0.27,CCOC(C)=O [ethyl acetate] + CCCC[N+]1(C)CCCC1.N#CN=C=[N-]
1.34 ± 0.14,1.39 ± 0.14,1.48 ± 0.15,1.56 ± 0.16,1.6 ± 0.17,C1CCOC1 [tetrahydrofuran] + CCCC[N+]1(C)CCCC1.N#CN=C=[N-]
1.4 ± 0.14,1.46 ± 0.15,1.53 ± 0.16,1.62 ± 0.17,1.67 ± 0.17,CCCC=O [butanal] + CCCC[N+]1(C)CCCC1.N#CN=C=[N-]
